Reference: patent US11596656B2, “Stem cell-produced microvesicles for treating tendon pathologies” (ALBERT EINSTEIN COLLEGE OF MEDICINE, priority 2016, dated 2023)
Structures can show the parent of a compound that is named as a salt.

Experiments:
[1] = tested on: MSCs grown on silk scaffolds; test: Rho/Rock pathway and stress fiber disruption in MSCs grown on silk scaffolds; assay type: cell-based; conditions: treatment for 24 h
Source text: FIG. 6A-6C. Disruption of Rho/Rock Pathway signaling and stress fiber formation are required for tendon lineage determination. (6A) Immunocytochemistry of P-actin in MSCs grown either with no treatment or treated with Latrunculin A, Y-27632 and Blebbistatin for 7 days (blue=DAPI, green=P-actin). *P<0.05 for all treatments. (6B) mRNA expression and protein expression of Sex and mRNA expression of (6C) Coll al and Nfatc4 Nst in MSCs grown on silk scaffolds following treatment with Latrunculin A (LatA), Y-27632 (Y) and Blebbistatin (Bleb) for 24 h. Data represent three independent experiments per assay.
4. Disruption of stress fiber formation by blocking Rho/Rock Pathway signaling abolished silk scaffold induced MSCs tendon lineage differentiation. To determine the role of stress fibers in mediating silk fiber-induced MSC tenogenic differentiation, the impact of cell signaling on the regulation of stress fiber formation was examined.
Compared to untreated cells, cells that were exposed to the above treatment conditions lost their elongated phenotype (FIG. 6A). […] Therefore, the expression of Nfatc4 and Collal following treatment with Latrunculin A, Y-27632, and blebbistatin was also examined.

[2] = tested on: MSCs grown on silk scaffolds; test: effect of cytochalasin D on silk-fiber induced MSC teno-differentiation; assay type: cell-based
Source text: FIG. 5A-5I. Cytochalasin D disrupted actin cytoskeletal arrangement in cells attached to scaffold fibers and abolished the elongated cell body [(5A) vs (5B)] and associated nuclear shape change [(5C) vs (5D)]. […] (5G) Relative mRNA and (5H) western blot of Sex and Tnmd expression with (i) relative mRNA expression of the housekeeping genes Hrptl and Pgkl as an internal control. Data represent at least three independent experiments per assay. *P<0.05 compared to MSCs seeded on a scaffold without cytochalasin D. Scale bar=25 μm.
3. Actin polymerization is required for scaffold induced stem cell elongation and expression of tenogenesis markers Sex and Tnmd. To determine the role of cytoskeletal organization in the differentiation of MSCs into tenocytes when MSCs are grown on silk, the effect of cytochalasin D, which inhibits actin polymerization by capping the barbed ends of F-actin polymers was examined on silk-fiber induced MSC teno-differentiation. Differences in cell shape and cell nuclei were quantified by measuring the lengths of the cells that were growing in parallel with the fibers and were compared to the maximal widths of the cells, which were measured perpendicular to the fibers. […] Significant differences were found when quantifying the cytoplasmic (P<0.05) and nuclear (P<0.05) ratios (Fig. SE).
To determine whether actin polymerization in elongated cells is required for tenogenic differentiation, the effect of cytochalasin D was examined on tenogenic marker gene and protein expression in MSCs that were grown on silk scaffolds for 7 days. […] To determine whether the loss of Sex and Tnmd expression was due to specific effects produced by cytochalasin D on actin polymerization and cell morphology, rather than due to general toxicity related to gene expression, the expression levels of two housekeeping genes, Hypoxanthine-guanine phosphoribosyltransferase
1 (Hprtl) and phosphoglycerate kinase 1 (Pgkl), were analyzed.

[3] = MSCs grown on silk scaffolds for 7 days, compared to untreated controls
[4] = check for general toxicity related to gene expression
[5] = compared to untreated MSCs, P<0.05

SMILES	expression level of Coll al [1]	expression level of Nfatc4 [1]	expression level of SCX proteins [1]	expression level of Sex mRNAs [1]	Sex expression (immunocytochemistry, real-time PCR, western blot) [2, 3]	Tnmd expression (immunocytochemistry, real-time PCR, western blot) [2, 3]	elongated phenotype of the cells [2, 3]	expression level of housekeeping gene Hprtl [2, 4]	expression level of housekeeping gene Pgkl [2, 4]	length-to-width ratio of cytoplasm [2, 5]	length-to-width ratio of nuclei [2, 5]
C[C@@H](N)[C@H]1CC[C@H](C(=O)Nc2ccncc2)CC1 [Y-27632, Y-27632 dihydrochloride]	significantly decreased	significantly decreased	significantly decreased	significantly decreased	–	–	–	–	–	–	–
Cc1ccc2c(c1)C(=O)C1(O)CCN(c3ccccc3)C1=N2 (stereo not shown) [blebbistatin]	significantly decreased	significantly decreased	significantly decreased	significantly decreased	–	–	–	–	–	–	–
C=C1[C@@H](C)[C@H]2[C@H](Cc3ccccc3)NC(=O)[C@]23[C@H](OC(C)=O)/C=C/[C@@](C)(O)C(=O)[C@@H](C)C/C=C/[C@H]3[C@@H]1O [cytochalasin D]	–	–	–	–	loss	loss	abolished	remained unchanged	remained unchanged	smaller	smaller
C/C1=C/C(=O)O[C@@H]2C[C@@H](CC[C@H](C)/C=C\C=C\CC1)O[C@@](O)([C@@H]1CSC(=O)N1)C2 [Latrunculin A]	significantly decreased	significantly decreased	significantly decreased	significantly decreased	–	–	–	–	–	–	–
